Experimental data published in the supplement of paper PMC10307832.

Legend:
Assay in all cases: relative viability (nuclei count vs DMSO), 5 days (fraction); higher = more cells survive
[1] = tested on: HCC-78
Procedure, shortened: (§1)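 Lung cancer cell lines in 1536-well plates were dosed by pin tool the day after seeding, either with one drug alone or with a fixed anchor-drug dose plus five library-drug doses (not always all listed) in √10 steps. After 5 days, cells were fixed and their nuclei stained in one step (final 0.05% Triton X-100, 1% formaldehyde, 1 ug/ml Hoechst), then counted on 4× images. Relative viability is the nuclei count in treated wells divided by that in vehicle wells. Values are medians of duplicate plates.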

[2] = tested on: NCI-H650
Procedure, shortened: as §1

[3] = tested on: HARA
Procedure, shortened: as §1

[4] = tested on: NCI-H596
Procedure, shortened: as §1

[5] = tested on: PC-3 [JPC-3]
Procedure, shortened: as §1

[6] = tested on: NCI-H23
Procedure, shortened: as §1

[7] = tested on: COR-L23
Procedure, shortened: as §1

[8] = tested on: LU99A
Procedure, shortened: as §1

[9] = tested on: NCI-H3122
Procedure, shortened: as §1

[10] = tested on: NCI-H1793
Procedure, shortened: as §1

[11] = tested on: SK-LU-1
Procedure, shortened: as §1

[12] = tested on: NCI-H358
Procedure, shortened: as §1

Question: Which results are given for CCNC(=O)c1noc(-c2cc(C(C)C)c(O)cc2O)c1-c1ccc(CN2CCOCC2)cc1 [Luminespib] + N=C(N)NC(=N)NCCc1ccccc1 [Phenformin] (partner 250 µM)?
Answer: relative viability ([1]; first compound 0.002 µM): 0.689; relative viability ([1]; first compound 0.006325 µM): 0.52; relative viability ([1]; first compound 0.06325 µM): 0.767; relative viability ([1]; first compound 0.2 µM): 0.257; relative viability ([2]; first compound 0.002 µM): 0.437; relative viability ([2]; first compound 0.006325 µM): 0.453; relative viability ([2]; first compound 0.02 µM): 0.391; relative viability ([2]; first compound 0.06325 µM): 0.213; relative viability ([2]; first compound 0.2 µM): 0.121; relative viability ([3]; first compound 0.002 µM): 0.484; relative viability ([3]; first compound 0.006325 µM): 0.422; relative viability ([3]; first compound 0.02 µM): 0.485; relative viability ([3]; first compound 0.06325 µM): 0.245; relative viability ([3]; first compound 0.2 µM): 0.0594; relative viability ([4]; first compound 0.002 µM): 0.648; relative viability ([4]; first compound 0.006325 µM): 0.621; relative viability ([4]; first compound 0.02 µM): 0.588; relative viability ([4]; first compound 0.06325 µM): 0.61; relative viability ([4]; first compound 0.2 µM): 0.58; relative viability ([5]; first compound 0.002 µM): 0.463; relative viability ([5]; first compound 0.006325 µM): 0.457; relative viability ([5]; first compound 0.02 µM): 0.462; relative viability ([5]; first compound 0.06325 µM): 0.472; relative viability ([5]; first compound 0.2 µM): 0.242; relative viability ([6]; first compound 0.002 µM): 0.821; relative viability ([6]; first compound 0.006325 µM): 0.727; relative viability ([6]; first compound 0.02 µM): 0.611; relative viability ([6]; first compound 0.06325 µM): 0.359; relative viability ([6]; first compound 0.2 µM): 0.16; relative viability ([7]; first compound 0.002 µM): 0.456; relative viability ([7]; first compound 0.006325 µM): 0.367; relative viability ([7]; first compound 0.02 µM): 0.457; relative viability ([7]; first compound 0.06325 µM): 0.0668; relative viability ([7]; first compound 0.2 µM): 0.0674; relative viability ([8]; first compound 0.002 µM): 0.818; relative viability ([8]; first compound 0.006325 µM): 0.71; relative viability ([8]; first compound 0.02 µM): 0.535; relative viability ([8]; first compound 0.06325 µM): 0.167; relative viability ([8]; first compound 0.2 µM): 0.125; relative viability ([9]; first compound 0.002 µM): 0.427; relative viability ([9]; first compound 0.006325 µM): 0.32; relative viability ([9]; first compound 0.02 µM): 0.132; relative viability ([9]; first compound 0.06325 µM): 0.0959; relative viability ([9]; first compound 0.2 µM): 0.0895; relative viability ([10]; first compound 0.002 µM): 0.367; relative viability ([10]; first compound 0.006325 µM): 0.373; relative viability ([10]; first compound 0.02 µM): 0.151; relative viability ([10]; first compound 0.06325 µM): 0.102; relative viability ([10]; first compound 0.2 µM): 0.138; relative viability ([11]; first compound 0.002 µM): 0.53; relative viability ([11]; first compound 0.006325 µM): 0.411; relative viability ([11]; first compound 0.02 µM): 0.192; relative viability ([11]; first compound 0.06325 µM): 0.0958; relative viability ([11]; first compound 0.2 µM): 0.0878; relative viability ([12]; first compound 0.002 µM): 0.348; relative viability ([12]; first compound 0.006325 µM): 0.356
